Series [1] has as its system human embryonic stem cell derived neural stem cells (NSCs). Put plainly: Neural stem cell proliferation assay (neurogenesis assay, ATP/CellTiterGlo). Format: cell-based. The following applies: 96 h, compound concentration at which 150% activity of control (100%) is reached, NSC proliferation by ATP level after 4 days incubation, dose response 8 μM to 8 nM. As for the experimental part:
Neural Stem Cell Proliferation Assay
Neurogenic properties of small molecules are determined based on the proliferation of human embryonic stem cell derived neural stem cells (NSCs) which were derived via a dual smad inhibition as previously described (Chambers, S. M., et al., Highly efficient neural conversion of human ES and iPS cells by dual inhibition of SMAD signaling, Nature biotechnology, 2009. 27(3): p. 275-80.)
Compounds respond is measured by the increase in cells based on ATP levels (Promega:CellTiterGlo®) after an incubation period of 4 days.
NSCs are thawed and expanded over 3 passages. On the 14th day, NSCs are seeded in Polyornithin/Laminin coated 384 well plates at a cell density of 21,000 cells/cm^2 in a media volume of 38 μL.
4 hours after cell seeding, compound solutions are added at a volume of 2 μl. Stock solutions of the compounds (water, 5% DMSO) are diluted to obtain a dose response (11 points, dilution factor is 2), ranging from 8 μM to 8 nM. Controls are run to consistently determine the neurogenic properties of the cells:
Negative (neutral) control is cell culture Media (final DMSO concentration: 0.25%).
Positive controls are: • 1. cell culture Media+100 ng/ml FGF2 (final DMSO concentration: 0.1%) • 2. cell culture Media+20 ng/ml EGF (final DMSO concentration: 0.1%) • 3. cell culture Media+100 ng/ml Wnt3a (final DMSO concentration: 0.1%)
After 4 days incubation at 37° C., 5% CO2, the amount of ATP per well is quantified. The ATP concentration is proportional to the cell number. ATP is quantified by using the Promega CellTiterGlo® kit. The CellTiterGlo® reagents contain a cell lysis buffer, a thermo stable luciferase (UltraGlo™ recombinant luciferase), magnesium and luciferin. Luciferin reacts with ATP producing oxyluciferin, AMP and light. The luminescence signal is proportional to the ATP content.
The value of negative (neutral) control is determined for each assay plate by taking the average of 16 negative control wells. The neurogenic compound response is calculated for each compound as (compound/Negative Control)*100.
The values of EC150 from the dose response curve are determined for each test compound. The EC150 is the compound concentration at which 150% activity of control (100%) is reached.
(ATP-based viability assays read luminescence as a measure of living cells.)

Each structure is given as a SMILES string.

Broadly, the melting point is the temperature, or range, at which the solid turns liquid. For `Cc1ccc(-n2nccc2-c2ccc3ncn(-c4ccc(C)cc4)c3c2)cc1` [Example 1, 1-p-Tolyl-6-(2-p-tolyl-2H-pyrazol-3-yl)-1H-benzoimidazole], the melting point is 165 °C. The compound further showed an EC150 in series [1] of 0.008 µM.
The like results for `c1ccc(-n2nccc2-c2ccc3ncn(-c4ccccc4)c3c2)cc1` [Example 2, 1-Phenyl-6-(2-phenyl-2H-pyrazol-3-yl)-1H-benzoimidazole] were, in that order, 194 °C and 0.014 µM.
The like results for `Fc1ccc(-n2nccc2-c2ccc3ncn(-c4ccccc4)c3c2)cc1` [Example 3, 6-[2-(4-Fluoro-phenyl)-2H-pyrazol-3-yl]-1-phenyl-1H-benzoimidazole] were, in that order, 201 °C and 0.024 µM.
`Cc1ccc(-n2nccc2-c2ccc3ncn(-c4ccccc4)c3c2)cc1` [Example 4, 1-Phenyl-6-(2-p-tolyl-2H-pyrazol-3-yl)-1H-benzoimidazole] came in with an EC150 in series [1] of 0.015 µM.
In turn, `Cc1ccc(-n2cnc3ccc(-c4ccnn4-c4ccccc4)cc32)cc1` [Example 5, 6-(2-Phenyl-2H-pyrazol-3-yl)-1-p-tolyl-1H-benzoimidazole] returned a melting point of 146 °C. The compound further returned an EC150 in series [1] of 0.0165 µM.
Turning to `Cc1ccc(-n2cnc3ccc(-c4ccnn4-c4ccc(F)cc4)cc32)cc1` [Example 6, 6-[2-(4-Fluoro-phenyl)-2H-pyrazol-3-yl]-1-p-tolyl-1H-benzoimidazole], the melting point came to 149 °C. Moreover, in series [1], the EC150 is 0.0195 µM.
The like results for `Fc1ccc(-n2cnc3ccc(-c4ccnn4-c4ccccc4)cc32)cc1` [Example 7, 1-(4-Fluoro-phenyl)-6-(2-phenyl-2H-pyrazol-3-yl)-1H-benzoimidazole] were, in that order, 194 °C and 0.031 µM.
The like results for `Fc1ccc(-n2nccc2-c2ccc3ncn(-c4ccc(F)cc4)c3c2)cc1` [Example 8, 1-(4-Fluoro-phenyl)-6-[2-(4-fluoro-phenyl)-2H-pyrazol-3-yl]-1H-benzoimidazole] were, in that order, 173 °C and 0.044 µM.
Consider `Cc1ccc(-n2nccc2-c2ccc3ncn(-c4ccc(F)cc4)c3c2)cc1` [Example 9, 1-(4-Fluoro-phenyl)-6-(2-p-tolyl-2H-pyrazol-3-yl)-1H-benzoimidazole], for which the EC150 in series [1] is 0.009 µM.
Compound `Fc1ccc(-n2cnc3ccc(-c4ccnn4-c4ccc(C(F)(F)F)cc4)cc32)cc1` [Example 10, 1-(4-Fluoro-phenyl)-6-[2-(4-trifluoromethyl-phenyl)-2H-pyrazol-3-yl]-1H-benzoimidazole] displayed a melting point of 167 °C. Moreover, in series [1], the EC150 was found to be 1.1 µM.
The like results for `Fc1ccc(-n2cnc3ccc(-c4ccnn4-c4ccc(Cl)cc4)cc32)cc1` [Example 11, 6-[2-(4-Chloro-phenyl)-2H-pyrazol-3-yl]-1-(4-fluoro-phenyl)-1H-benzoimidazole] were, in that order, 180 °C and 0.11 µM.
The like results for `FC(F)(F)c1ccc(-n2nccc2-c2ccc3ncn(-c4ccc(Cl)cc4)c3c2)cc1` [Example 12, 1-(4-Chloro-phenyl)-6-[2-(4-trifluoromethyl-phenyl)-2H-pyrazol-3-yl]-1H-benzoimidazole] were, in that order, 198 °C and 0.71 µM.
The like results for `Clc1ccc(-n2nccc2-c2ccc3ncn(-c4ccc(Cl)cc4)c3c2)cc1` [Example 13, 1-(4-Chloro-phenyl)-6-[2-(4-chloro-phenyl)-2H-pyrazol-3-yl]-1H-benzoimidazole] were, in that order, 182 °C and 0.082 µM.
In turn, `FC(F)(F)c1ccc(-n2cnc3ccc(-c4ccnn4-c4ccc(Cl)cc4)cc32)cc1` [Example 14, 6-[2-(4-Chloro-phenyl)-2H-pyrazol-3-yl]-1-(4-trifluoromethyl-phenyl)-1H-benzoimidazole] had a melting point of 196 °C. Also, the EC150 in series [1] came out at 0.62 µM.
The like results for `Fc1ccc(-n2cnc3ccc(-c4ccnn4-c4ccc(C(F)(F)F)cc4)cc32)c(F)c1` [Example 15, 1-(2,4-Difluoro-phenyl)-6-[2-(4-trifluoromethyl-phenyl)-2H-pyrazol-3-yl]-1H-benzoimidazole] were, in that order, 129 °C and 1.33 µM.
The like results for `Fc1ccc(-n2cnc3ccc(-c4ccnn4-c4ccc(Cl)cc4)cc32)c(F)c1` [Example 16, 6-[2-(4-Chloro-phenyl)-2H-pyrazol-3-yl]-1-(2,4-difluoro-phenyl)-1H-benzoimidazole] were, in that order, 133 °C and 0.19 µM.
The like results for `Fc1ccc(-n2nccc2-c2ccc3ncn(-c4ccc(F)cc4F)c3c2)cc1` [Example 17, 1-(2,4-Difluoro-phenyl)-6-[2-(4-fluoro-phenyl)-2H-pyrazol-3-yl]-1H-benzoimidazole] were, in that order, 152 °C and 0.047 µM.
`Fc1ccc(-n2nccc2-c2ccc3ncn(-c4ccc(C(F)(F)F)cc4)c3c2)cc1` [Example 18, 6-[2-(4-Fluoro-phenyl)-2H-pyrazol-3-yl]-1-(4-trifluoromethyl-phenyl)-1H-benzoimidazole] yielded a melting point of 204 °C. Further, the EC150 in series [1] was found to be 0.41 µM.
`Fc1ccc(-n2nccc2-c2ccc3ncn(-c4ccc(Cl)cc4)c3c2)cc1` [Example 19, 1-(4-Chloro-phenyl)-6-[2-(4-fluoro-phenyl)-2H-pyrazol-3-yl]-1H-benzoimidazole] registered a melting point of 173 °C. Also, the EC150 in series [1] came to 0.09 µM.
Turning to `Fc1ccc(-n2nccc2-c2ccc3ncn(-c4ccncc4)c3c2)cc1` [Example 20, 6-[2-(4-Fluoro-phenyl)-2H-pyrazol-3-yl]-1-pyridin-4-yl-1H-benzoimidazole], the melting point was 199 °C. For the same compound, the EC150 in series [1] is 0.044 µM.
The like results for `Clc1ccc(-n2nccc2-c2ccc3ncn(-c4ccncc4)c3c2)cc1` [Example 21, 6-[2-(4-Chloro-phenyl)-2H-pyrazol-3-yl]-1-pyridin-4-yl-1H-benzoimidazole] were, in that order, 203 °C and 0.036 µM.
The like results for `Fc1ccc(-n2nccc2-c2ccc3ncn(-c4ccc(Cl)cc4F)c3c2)cc1` [Example 22, 1-(4-Chloro-2-fluoro-phenyl)-6-[2-(4-fluoro-phenyl)-2H-pyrazol-3-yl]-1H-benzoimidazole] were, in that order, 153 °C and 0.084 µM.
The like results for `Fc1cc(Cl)ccc1-n1cnc2ccc(-c3ccnn3-c3ccc(Cl)cc3)cc21` [Example 23, 1-(4-Chloro-2-fluoro-phenyl)-6-[2-(4-chloro-phenyl)-2H-pyrazol-3-yl]-1H-benzoimidazole] were, in that order, 158 °C and 0.17 µM.
The compound `COc1ccc(-n2cnc3ccc(-c4ccnn4-c4ccc(F)cc4)cc32)cc1` [Example 24, 6-[2-(4-Fluoro-phenyl)-2H-pyrazol-3-yl]-1-(4-methoxy-phenyl)-1H-benzoimidazole] showed a melting point of 143 °C. This compound also gave an EC150 in series [1] of 0.021 µM.
The like results for `COc1ccc(-n2cnc3ccc(-c4ccnn4-c4ccc(Cl)cc4)cc32)cc1` [Example 25, 6-[2-(4-Chloro-phenyl)-2H-pyrazol-3-yl]-1-(4-methoxy-phenyl)-1H-benzoimidazole] were, in that order, 163 °C and 0.056 µM.
The like results for `CS(=O)(=O)c1ccc(-n2cnc3ccc(-c4ccnn4-c4ccc(F)cc4)cc32)cc1` [Example 26, 6-[2-(4-Fluoro-phenyl)-2H-pyrazol-3-yl]-1-(4-methanesulfonyl-phenyl)-1H-benzoimidazole] were, in that order, 247 °C and 0.28 µM.
The like results for `CS(=O)(=O)c1ccc(-n2cnc3ccc(-c4ccnn4-c4ccc(Cl)cc4)cc32)cc1` [Example 27, 6-[2-(4-Chloro-phenyl)-2H-pyrazol-3-yl]-1-(4-methanesulfonyl-phenyl)-1H-benzoimidazole] were, in that order, 280 °C and 0.16 µM.
Compound `Fc1ccc(-n2cnc3ccc(-c4cncn4-c4ccccc4)cc32)cc1` [Example 28, 1-(4-Fluoro-phenyl)-6-(3-phenyl-3H-imidazol-4-yl)-1H-benzoimidazole] gave a melting point of 216 °C. Further, the EC150 in series [1] amounted to 0.07 µM.
The like results for `Fc1ccc(-n2cnc3ccc(-c4cncn4-c4ccc(Cl)cc4)cc32)cc1` [Example 29, 6-[3-(4-Chloro-phenyl)-3H-imidazol-4-yl]-1-(4-fluoro-phenyl)-1H-benzoimidazole] were, in that order, 254 °C and 0.074 µM.

Values taken from patent US9365550B2, “Benzimidazoles as CNS active agents” (Hoffmann-La Roche Inc., priority 2012, dated 2016).
